The record followed here is patent publication US20240016777A1, “COMPOUNDS AND METHODS FOR TREATING VIRAL INFECTIONS” (priority 2020, published 2024).

The IC50 is the concentration that inhibits the measured activity by half.

In one assay the target is SARS-CoV-2 M^pro (Severe acute respiratory syndrome coronavirus 2 (2019-nCoV) (SARS-CoV-2), UniProt P0DTD1). Put plainly: biochemical.
Details: not given
For the compound `COc1cc(O)c2c(=O)cc(-c3ccc(OC)c(-c4c(O)cc(O)c5c(=O)cc(-c6ccc(O)cc6)oc45)c3)oc2c1` [Ginkgetin], the “Mpro inhibitory activity (comparison in words)” value is on record as “comparable to amentoflavone”.

Still in this assay, the particulars now being: compound at 17 μM, duplicates, 20 min pre-incubation.
On to `COc1cc2c(c3c1CC[C@@H](c1ccccc1)O3)[C@H]1c3c(cc(O)c(C)c3OC)O[C@](c3ccccc3)(O2)[C@@H]1O` [Dracoflavan B1], for which the “Activity (% enzyme activity by fluorescence relative to initial enzyme activity)” value is “++ (enzyme activity as indicated by fluorescence measurements ≥10% and <80%)”.

Still in this assay, the particulars now being: compound at 17 μM, duplicates, 20 min pre-incubation; read-out: Activity (% enzyme activity by fluorescence relative to initial enzyme activity).
`CC(C)=CCc1cc([C@@H]2CC(=O)c3c(O)cc(O)c(CC=C(C)C)c3O2)c(O)cc1O` [Euchrestaflavanone B]: the remaining activity at 17 µM lay within 10 to 80%.
The same measure, in the same setting: to `O=c1c(-c2ccc(O)cc2)coc2cc(O)cc(O)c12` [Genistein] belongs more than 80%.

Staying with this assay, now noted: compounds evaluated at 0.015-300 μM; read-out: IC50.
`COc1cc2c(c3c1CC[C@@H](c1ccccc1)O3)[C@H]1c3c(cc(O)c(C)c3OC)O[C@](c3ccccc3)(O2)[C@@H]1O` [Dracoflavan B1]: the IC50 came to 17 µM.
Same read-out and setting: the result for `CC(C)=CCc1cc([C@@H]2CC(=O)c3c(O)cc(O)c(CC=C(C)C)c3O2)c(O)cc1O` [Euchrestaflavanone B] reads 96 µM.

Still in this assay, the particulars now being: read-out: Activity (% enzyme activity by fluorescence relative to initial enzyme activity), compound at 17 μM, duplicates, 20 min pre-incubation.
Consider `CC(C)=CCC/C(C)=C/Cc1cc(-c2coc3cc(O)ccc3c2=O)ccc1O` [Corylifol A], for which the remaining activity at 17 µM was more than 80%.
In the case of `CC(C)=CCc1c(O)ccc2c(=O)cc(-c3ccc(O)c(O)c3)oc12` [Corylifol C], the remaining activity at 17 µM was more than 80%.
On to `CC(C)=CCc1c(O)cc2c(c1O)C(=O)C[C@@H](c1ccc(O)cc1O)O2` [Cudraflavanone B], for which the remaining activity at 17 µM was more than 80%.
For the compound `CC(C)=CCc1c(-c2ccc(O)cc2O)oc2cc3c(c(O)c2c1=O)C=CC(C)(C)O3` [Cudraflavone B], the remaining activity at 17 µM lay within 10 to 80%.
Same read-out and setting: to `CC(C)=CC1Oc2cc(O)ccc2-c2oc3cc(O)cc(O)c3c(=O)c21` (stereo not shown) [Cyclocommunol] belongs more than 80%.
For the compound `CC(C)=CCc1c2c(c(O)c3c(=O)c4c(oc13)-c1cc(O)c(O)cc1OC4C=C(C)C)C=CC(C)(C)O2` (stereo not shown) [Cycloheterophyllin], the remaining activity at 17 µM is more than 80%.
The same measure, in the same setting: to `CC(C)=CC1Oc2cc(O)ccc2-c2oc3c4c(cc(O)c3c(=O)c21)OC(C)(C)C=C4` (stereo not shown) [Cyclomorusin] belongs more than 80%; to `CC(C)=CCc1c(O)cc(O)c2c(=O)c3c(oc12)-c1ccc(O)cc1OC3C=C(C)C` (stereo not shown) [Cyclomulberrin], 10 to 80%.
Consider `COc1c2c(cc(O)c1CC=C(C)C)OCC(c1ccc(O)cc1O)=C2` [Dehydroglyasperin C], for which the remaining activity at 17 µM is more than 80%.
The same measure, in the same setting: to `C=C(C)C(O)Cc1cc(-c2coc3cc(O)c(CC=C(C)C)c(O)c3c2=O)ccc1O` (stereo not shown) [Derrisisoflavone B] belongs more than 80%.
Still for that read-out and setting: the result for `CC(C)=CCc1c(O)ccc([C@H]2COc3cc(O)cc(O)c3C2=O)c1O` [Dihydrolicoisoflavone] reads more than 80%; that for `O=C1c2c(O)cc(O)cc2O[C@H](c2ccc(O)cc2O)[C@H]1O` [Dihydromorin], more than 80%; that for `C=C(C)C(O)Cc1cc(-c2oc3cc(O)c(OC)c(O)c3c(=O)c2OC)cc(CCC(C)CO)c1O` (stereo not shown) [Dodoviscin A], more than 80%.
Regarding `COc1c(-c2cc(CC=C(C)C)c(O)c(CCC(C)CO)c2)oc2cc(O)cc(O)c2c1=O` (stereo not shown) [Dodoviscin H], the remaining activity at 17 µM is more than 80%.
Same read-out and setting: the result for `COc1cc(-c2oc3cc(O)cc(O)c3c(=O)c2OC)cc(CC=C(C)C)c1O` [Dodoviscin J] reads more than 80%.
Same read-out and setting: the result for `COc1c(O)cc2oc(-c3cc(CC=C(C)C)c4c(c3)CC(O)C(C)(C)O4)c(OC)c(=O)c2c1O` (stereo not shown) [Dodovisone A] reads more than 80%; that for `COc1ccc(-c2oc3c(CC=C(C)C)c(O[C@@H]4O[C@H](CO)[C@@H](O)[C@H](O)[C@H]4O)cc(O)c3c(=O)c2O[C@@H]2O[C@@H](C)[C@H](O)[C@@H](O[C@@H]3O[C@H](CO)[C@@H](O)[C@H](O)[C@H]3O)[C@H]2O)cc1` [Epimedin A1], more than 80%; that for `COc1ccc(-c2oc3c(CC=C(C)C)c(O[C@@H]4O[C@H](CO)[C@@H](O)[C@H](O)[C@H]4O)cc(O)c3c(=O)c2O[C@@H]2O[C@@H](C)[C@H](O)[C@@H](O)[C@H]2O[C@@H]2O[C@H](CO)[C@@H](O)[C@H](O)[C@H]2O)cc1` [Epimedin A], 10 to 80%.
Still for that read-out and setting: the result for `COc1ccc(-c2oc3c(CC=C(C)C)c(O[C@@H]4O[C@H](CO)[C@@H](O)[C@H](O)[C@H]4O)cc(O)c3c(=O)c2O[C@@H]2O[C@@H](C)[C@H](O[C@@H]3OC[C@@H](O)[C@H](O)[C@H]3O)[C@@H](O)[C@H]2O)cc1` [Epimedin B1] reads 10 to 80%; that for `COc1ccc(-c2oc3c(CC=C(C)C)c(O[C@@H]4O[C@H](CO)[C@@H](O)[C@H](O)[C@H]4O)cc(O)c3c(=O)c2O[C@@H]2O[C@@H](C)[C@H](O)[C@@H](O)[C@H]2O[C@@H]2OC[C@@H](O)[C@H](O)[C@H]2O)cc1` [Epimedin B], 10 to 80%.
On to `COc1ccc(-c2oc3c(CC=C(C)C)c(O[C@@H]4O[C@H](CO)[C@@H](O)[C@H](O)[C@H]4O)cc(O)c3c(=O)c2O[C@@H]2O[C@@H](C)[C@H](O)[C@@H](O)[C@H]2O[C@@H]2O[C@@H](C)[C@H](O)[C@@H](O)[C@H]2O)cc1` [Epimedin C], for which the remaining activity at 17 µM fell in the range of 10 to 80%.
Same read-out and setting: to `COc1ccc(-c2oc3c(CC=C(C)C)c(O[C@@H]4O[C@H](CO)[C@@H](O)[C@H](O)[C@H]4O)cc(O)c3c(=O)c2O[C@@H]2O[C@@H](C)[C@H](OC(C)=O)[C@@H](O)[C@H]2O[C@@H]2O[C@H](COC(C)=O)[C@@H](O)[C@H](OC(C)=O)[C@H]2O)cc1` [Epimedin K] belongs more than 80%; to `CC(C)=CCc1cc(-c2cc(=O)c3c(O)cc(O)c(CC=C(C)C)c3o2)cc(O)c1O` [Epimedokoreanin B], more than 80%; to `CC(C)=CCc1c(O)cc(O)c2c(=O)cc(-c3cc(O)c4c(c3)C(O)C(C(C)(C)O)O4)oc12` (stereo not shown) [Epimedokoreanin C], more than 80%.
Same read-out and setting: to `CC(C)=CCc1c(O[C@@H]2O[C@H](CO)[C@@H](O)[C@H](O)[C@H]2O)cc(O)c2c(=O)c(O[C@@H]3O[C@@H](C)[C@H](O)[C@@H](O)[C@H]3O)c(-c3ccc(O)cc3)oc12` [Epimedoside A] belongs more than 80%.
For the compound `CC(C)=CCc1c(O)c(CC=C(C)C)c2occc(=O)c2c1O` [Eriosemation], the remaining activity at 17 µM was more than 80%.
On the same count and under the same terms, to `C=C(C)C(O)Cc1c(O)c(CC=C(C)C)c(O)c2c(=O)c(-c3ccc(O)cc3)coc12` (stereo not shown) [Erysenegalensein E] belongs more than 80%; to `CC(C)=CCc1c(O)cc(O)c2c1O[C@H](c1ccc3c(c1)C=CC(C)(C)O3)CC2=O` [Euchrenone A10], more than 80%.
For `CC(C)=CCc1cc(-c2coc3c(CC=C(C)C)c(O)c(CC=C(C)C)c(O)c3c2=O)ccc1O` [Euchrenone B1], the remaining activity at 17 µM was more than 80%.
On the same count and under the same terms, to `CC(C)=CCc1cc([C@@H]2CC(=O)c3c(O)cc(O)c(CC=C(C)C)c3O2)ccc1O` [Euchrestaflavanone A] belongs more than 80%; to `CC(C)=CCc1c(O[C@@H]2O[C@H](CO)[C@@H](O)[C@H](O)[C@H]2O)cc(O)c2c1O[C@H](c1ccc(O)cc1)CC2=O` [Flavaprin], more than 80%; to `COc1cc2occ(-c3ccc(O)cc3)c(=O)c2c(O)c1CC=C(C)C` [Gancaonin G], more than 80%.
Same read-out and setting: to `COc1ccc(-c2coc3c(CC=C(C)C)c(O)cc(O)c3c2=O)cc1` [Gancaonin M] belongs more than 80%.
Still for that read-out and setting: to `COc1ccc(-c2coc3cc(O)c(CC=C(C)C)c(O)c3c2=O)c(O)c1` [Gancaonin N] belongs more than 80%; to `CC(C)=CCc1c(O)cc(O)c2c1O[C@H](c1ccccc1)CC2=O` [Glabranin], more than 80%; to `CC(C)=CCc1c(O)cc(O)c2c1O[C@H](c1ccccc1)[C@@H](O)C2=O` [Glepidotin B], more than 80%.
`COc1c(CC=C(C)C)c(O)cc(O)c1-c1coc2cc(O)ccc2c1=O` [Glicoricone]: the remaining activity at 17 µM is more than 80%.
The same measure, in the same setting: the result for `CC(C)=CCc1cc(-c2oc3cc(O)c(CC=C(C)C)c(O)c3c(=O)c2O)ccc1O` [Glyasperin A] reads more than 80%.
On the same count and under the same terms, the result for `COc1c(CC=C(C)C)c(O)cc2c1CC(c1ccc(O)cc1O)CO2` (stereo not shown) [Glyasperin C] reads more than 80%; that for `COc1cc2c(c(OC)c1CC=C(C)C)C[C@H](c1ccc(O)cc1O)CO2` [Glyasperin D], 10 to 80%.
Same read-out and setting: the result for `COc1ccc(-c2oc3c(CC=C(C)C)c(O[C@@H]4O[C@H](CO)[C@@H](O)[C@H](O)[C@H]4O)cc(O)c3c(=O)c2O[C@@H]2O[C@@H](C)[C@H](O)[C@@H](O)[C@H]2O)cc1` [Icariin] reads 10 to 80%; that for `COc1ccc(-c2oc3c(CC=C(C)C)c(O[C@@H]4O[C@H](CO)[C@@H](O)[C@H](O)[C@H]4O)cc(O)c3c(=O)c2O)cc1` [Icariside I], more than 80%.
For `COc1ccc(-c2oc3c(CC=C(C)C)c(O)cc(O)c3c(=O)c2O)cc1` [Icaritin], the remaining activity at 17 µM is more than 80%.
The same measure, in the same setting: the result for `CC(C)=CCc1c(O)cc(O)c2c(=O)c(O[C@@H]3O[C@@H](C)[C@H](O)[C@@H](O)[C@H]3O[C@@H]3OC[C@@H](O)[C@H](O)[C@H]3O)c(-c3ccc(O)cc3)oc12` [Ikarisoside F] reads 10 to 80%; that for `CC(C)=CCc1cc(-c2coc3cc(O)c(CC=C(C)C)c(O)c3c2=O)cc(O)c1O` [Imbricataflavone A], more than 80%.
On the same count and under the same terms, to `COc1cc(O)c2c(=O)c(O)c(-c3ccc(O)cc3)oc2c1CC=C(C)C` [Isoanhydroicaritin] belongs more than 80%; to `CC(C)=CCc1c(O)ccc2c1O[C@H](c1ccc(O)cc1)CC2=O` [Isobavachin], more than 80%; to `CC(C)=CCc1c(O)cc2occ(-c3ccc4c(c3)C=CC(C)(C)O4)c(=O)c2c1O` [Isochandalone], more than 80%.
With `C=C(C)C(O)Cc1c(O)c(CC=C(C)C)c2occ(-c3ccc(O)cc3)c(=O)c2c1O` (stereo not shown) [Isoerysenegalensein E], the remaining activity at 17 µM is more than 80%.
